The source of these data is ChEMBL document CHEMBL2375322, “Synthesis using microwave irradiation and antibacterial evaluation of new N,O-acetals and N,S-acetals derived from 2-amino-1,4-naphthoquinones” (2013).

Values after ≈ are worked out from the molar mass of the structure shown. Active and inactive are the calls of the source. The calls are words filed in the database; no cut-off is given here.

Common to all, as to assay type: functional
In experiment [1] the test system is Klebsiella pneumoniae. Briefly: Antibacterial activity against Klebsiella pneumoniae after 18 to 24 hrs by disc diffusion assay.
Experiment [2] relates to Staphylococcus aureus. As to the kind of experiment: Antibacterial activity against methicillin-resistant Staphylococcus aureus after 18 to 24 hrs by disc diffusion assay.
Experiment [3] relates to Staphylococcus haemolyticus. As to the kind of experiment: Antibacterial activity against oxacillin-resistant Staphylococcus haemolyticus after 18 to 24 hrs by disc diffusion assay.
The subject of experiment [4] is Pseudomonas aeruginosa. Briefly: Antibacterial activity against Pseudomonas aeruginosa after 18 to 24 hrs by disc diffusion assay.
For experiment [5], the system named is Staphylococcus aureus. As to the kind of experiment: Antibacterial activity against Staphylococcus aureus ATCC 25923 after 18 to 24 hrs by disc diffusion assay.
Experiment [6] relates to Staphylococcus aureus. Briefly: Antibacterial activity against oxacillin-resistant Staphylococcus aureus after 18 to 24 hrs by disc diffusion assay.
Experiment [7] has as its system Staphylococcus epidermidis. Briefly: Antibacterial activity against oxacillin-resistant Staphylococcus epidermidis after 18 to 24 hrs by disc diffusion assay.
Experiment [8] relates to Staphylococcus aureus. As to the kind of experiment: Antibacterial activity against Staphylococcus aureus after 18 to 24 hrs by disc diffusion assay.
Experiment [9] has as its system Klebsiella pneumoniae. As to the kind of experiment: Antibacterial activity against Klebsiella pneumoniae after 18 to 24 hrs by broth macrodilution method.
Experiment [10] deals with Staphylococcus epidermidis. Briefly: Antibacterial activity against oxacillin-resistant Staphylococcus epidermidis after 18 to 24 hrs by broth macrodilution method.
Experiment [11] deals with Staphylococcus aureus. Briefly: Antibacterial activity against Staphylococcus aureus after 18 to 24 hrs by broth macrodilution method.
In experiment [12] the test system is Staphylococcus aureus. As to the kind of experiment: Antibacterial activity against oxacillin-resistant Staphylococcus aureus after 18 to 24 hrs by broth macrodilution method.
The test system of experiment [13] is Staphylococcus aureus. Briefly: Antibacterial activity against methicillin-resistant Staphylococcus aureus after 18 to 24 hrs by broth macrodilution method.
The subject of experiment [14] is Staphylococcus aureus. Briefly: Antibacterial activity against Staphylococcus aureus ATCC 25923 after 18 to 24 hrs by broth macrodilution method.
Experiment [15] has as its system Pseudomonas aeruginosa. Briefly: Antibacterial activity against Pseudomonas aeruginosa after 18 to 24 hrs by broth macrodilution method.
Experiment [16] deals with Staphylococcus haemolyticus. As to the kind of experiment: Antibacterial activity against oxacillin-resistant Staphylococcus haemolyticus after 18 to 24 hrs by broth macrodilution method.

Take `CC1=C(NCSc2ccccc2)C(=O)c2ccccc2C1=O`: the inhibition result (with Klebsiella pneumoniae [1]; in the experiment on Staphylococcus aureus [2]; in [3]; in the experiment on Pseudomonas aeruginosa [4]; in the experiment with Staphylococcus aureus [5]; with Staphylococcus aureus [6]) was “inactive” throughout. Further, the inhibition entry (in experiment [7]; with Staphylococcus aureus [8]) was “inactive” throughout.
Regarding `COCNC1=CC(=O)c2ccccc2C1=O`, the “diameter of the inhibition zone (DIZ)” value in the experiment on Klebsiella pneumoniae [1] came out at 17 mm; in the experiment with Staphylococcus aureus [2], 16 mm; in experiment [3] it was 20 mm; in the experiment with Pseudomonas aeruginosa [4], 0 mm; in the experiment on Staphylococcus aureus [5], 17 mm; in the experiment on Staphylococcus aureus [6], 18 mm. The “diameter of the inhibition zone (DIZ)” value is 14 mm in experiment [7] and 24 mm in the experiment on Staphylococcus aureus [8]. For the same compound, the MIC against Klebsiella pneumoniae [9] was determined as 256 µg/mL (≈ 1180 µM); in experiment [10], 8 µg/mL (≈ 36.8 µM); against Staphylococcus aureus [11] it was 16 µg/mL (≈ 73.7 µM); against Staphylococcus aureus [12], 16 µg/mL (≈ 73.7 µM); with Staphylococcus aureus [13] it was 16 µg/mL (≈ 73.7 µM); in the experiment with Staphylococcus aureus [14], 16 µg/mL (≈ 73.7 µM). Moreover, the MIC against Pseudomonas aeruginosa [15] is no less than 256 µg/mL; in experiment [16], 16 µg/mL (≈ 73.7 µM).
As to `Cc1ccc(SCNC2=CC(=O)c3ccccc3C2=O)cc1`, the inhibition entry (in the experiment on Klebsiella pneumoniae [1]; in the experiment with Staphylococcus aureus [2]; in experiment [3]; in the experiment on Pseudomonas aeruginosa [4]; in the experiment on Staphylococcus aureus [5]; with Staphylococcus aureus [6]) was “inactive” each time. Besides, the inhibition result (in [7]; in the experiment with Staphylococcus aureus [8]) was “inactive” in each case.
Turning to `CCCSCNC1=CC(=O)c2ccccc2C1=O`, the inhibition entry (in the experiment on Klebsiella pneumoniae [1]; in the experiment with Staphylococcus aureus [2]; in experiment [3]; in the experiment on Pseudomonas aeruginosa [4]; in the experiment with Staphylococcus aureus [5]; with Staphylococcus aureus [6]) was “inactive” throughout. Also, the inhibition entry (in experiment [7]; with Staphylococcus aureus [8]) was “inactive” in each case.
In the case of `CSc1ccc(SCNC2=CC(=O)c3ccccc3C2=O)cc1`, the inhibition result (in the experiment with Klebsiella pneumoniae [1]; with Staphylococcus aureus [2]; in experiment [3]; with Pseudomonas aeruginosa [4]; with Staphylococcus aureus [5]; in the experiment with Staphylococcus aureus [6]) was “inactive” in each case. In addition, the inhibition result (in [7]; with Staphylococcus aureus [8]) was “inactive” each time.
Consider `C#CCOCNC1=CC(=O)c2ccccc2C1=O`, for which the “diameter of the inhibition zone (DIZ)” value with Klebsiella pneumoniae [1] came to 0 mm; in the experiment on Staphylococcus aureus [2], 16 mm; in [3] it was 18 mm; in the experiment with Pseudomonas aeruginosa [4], 18 mm; with Staphylococcus aureus [5], 16 mm; in the experiment on Staphylococcus aureus [6], 12 mm. The “diameter of the inhibition zone (DIZ)” value was determined as 10 mm in experiment [7] and 20 mm in the experiment on Staphylococcus aureus [8]. The MIC was no less than 256 µg/mL with Klebsiella pneumoniae [9]; 16 µg/mL (≈ 66.3 µM) in experiment [10]; 32 µg/mL (≈ 133 µM) with Staphylococcus aureus [11]; 256 µg/mL (≈ 1060 µM) against Staphylococcus aureus [12]; 64 µg/mL (≈ 265 µM) against Staphylococcus aureus [13]; 32 µg/mL (≈ 133 µM) in the experiment with Staphylococcus aureus [14]. The MIC stood at 16 µg/mL (≈ 66.3 µM) with Pseudomonas aeruginosa [15] and 32 µg/mL (≈ 133 µM) in experiment [16].
Consider `COc1ccc(SCNC2=CC(=O)c3ccccc3C2=O)cc1`, for which the inhibition result (with Klebsiella pneumoniae [1]; with Staphylococcus aureus [2]; in experiment [3]; in the experiment on Pseudomonas aeruginosa [4]; with Staphylococcus aureus [5]; in the experiment on Staphylococcus aureus [6]) was “inactive” each time. Besides, the inhibition result (in [7]; in the experiment on Staphylococcus aureus [8]) was “inactive” each time.
As for `Cc1ccccc1SCNC1=CC(=O)c2ccccc2C1=O`, the inhibition entry (in the experiment on Klebsiella pneumoniae [1]; with Staphylococcus aureus [2]; in [3]; with Pseudomonas aeruginosa [4]; in the experiment on Staphylococcus aureus [5]; with Staphylococcus aureus [6]) was “inactive” in each case. Besides, the inhibition result (in experiment [7]; in the experiment with Staphylococcus aureus [8]) was “inactive” each time.
`CCOCNC1=CC(=O)c2ccccc2C1=O`: the “diameter of the inhibition zone (DIZ)” value worked out at 0 mm in the experiment on Klebsiella pneumoniae [1]; 14 mm in the experiment on Staphylococcus aureus [2]; 16 mm in experiment [3]; 14 mm in the experiment with Pseudomonas aeruginosa [4]; 15 mm in the experiment on Staphylococcus aureus [5]; 17 mm in the experiment on Staphylococcus aureus [6]. Besides, the “diameter of the inhibition zone (DIZ)” value in [7] amounted to 10 mm; in the experiment on Staphylococcus aureus [8], 18 mm. The MIC against Klebsiella pneumoniae [9] was no less than 256 µg/mL; in [10], 16 µg/mL (≈ 69.2 µM); with Staphylococcus aureus [11], 4 µg/mL (≈ 17.3 µM); against Staphylococcus aureus [12], 32 µg/mL (≈ 138 µM); in the experiment on Staphylococcus aureus [13], 32 µg/mL (≈ 138 µM); in the experiment with Staphylococcus aureus [14], 8 µg/mL (≈ 34.6 µM). Moreover, the MIC came out at 128 µg/mL (≈ 554 µM) with Pseudomonas aeruginosa [15] and 64 µg/mL (≈ 277 µM) in experiment [16].
For the compound `O=C1C=C(NCSc2ccc(F)cc2)C(=O)c2ccccc21`, the inhibition result (with Klebsiella pneumoniae [1]; in the experiment on Staphylococcus aureus [2]; in [3]; in the experiment on Pseudomonas aeruginosa [4]; in the experiment on Staphylococcus aureus [5]; with Staphylococcus aureus [6]) was “inactive” throughout. The inhibition result (in [7]; with Staphylococcus aureus [8]) was “inactive” in each case.
Turning to `O=C1C=C(NCOCc2ccccc2)C(=O)c2ccccc21`, the inhibition result (in the experiment with Klebsiella pneumoniae [1]; in the experiment with Staphylococcus aureus [2]; in experiment [3]; in the experiment with Pseudomonas aeruginosa [4]; in the experiment with Staphylococcus aureus [5]; in the experiment with Staphylococcus aureus [6]) was “inactive” in each case. Besides, the inhibition entry (in experiment [7]; with Staphylococcus aureus [8]) was “inactive” throughout.
For `O=C(O)c1cn(C2CC2)c2cc(N3CCNCC3)c(F)cc2c1=O` [CIPROFLOXACIN], the “diameter of the inhibition zone (DIZ)” value in the experiment on Klebsiella pneumoniae [1] and with Pseudomonas aeruginosa [4] was 22 mm in each case. For the same compound, the MIC against Klebsiella pneumoniae [9] and in the experiment with Pseudomonas aeruginosa [15] was 1 µg/mL (≈ 3.02 µM) in each case.
On to `O=C1C=C(NCOCc2cn(-c3ccccc3)nn2)C(=O)c2ccccc21`, for which the inhibition result (in the experiment with Klebsiella pneumoniae [1]; with Staphylococcus aureus [2]; in experiment [3]; in the experiment with Pseudomonas aeruginosa [4]; with Staphylococcus aureus [5]; in the experiment on Staphylococcus aureus [6]) was “inactive” in each case. The inhibition entry (in experiment [7]; in the experiment with Staphylococcus aureus [8]) was “inactive” in each case.
In the case of `CC(C)OCNC1=CC(=O)c2ccccc2C1=O`, the inhibition result (with Klebsiella pneumoniae [1]; in the experiment on Staphylococcus aureus [2]; in experiment [3]; in the experiment on Pseudomonas aeruginosa [4]; in the experiment on Staphylococcus aureus [5]; with Staphylococcus aureus [6]) was “inactive” each time. Moreover, the inhibition result (in experiment [7]; in the experiment on Staphylococcus aureus [8]) was “inactive” each time.
As to `CC(C)(C)OCNC1=CC(=O)c2ccccc2C1=O`, the inhibition entry (in the experiment with Klebsiella pneumoniae [1]; with Staphylococcus aureus [2]; in experiment [3]; in the experiment on Pseudomonas aeruginosa [4]; in the experiment with Staphylococcus aureus [5]; with Staphylococcus aureus [6]) was “inactive” each time. Besides, the inhibition result (in experiment [7]; with Staphylococcus aureus [8]) was “inactive” in each case.
Consider `CN[C@H](CC(C)C)C(=O)N[C@H]1C(=O)N[C@@H](CC(N)=O)C(=O)N[C@H]2C(=O)N[C@H]3C(=O)N[C@H](C(=O)N[C@H](C(=O)O)c4cc(O)cc(O)c4-c4cc3ccc4O)[C@H](O)c3ccc(c(Cl)c3)Oc3cc2cc(c3O[C@@H]2O[C@H](CO)[C@@H](O)[C@H](O)[C@H]2O[C@H]2C[C@](C)(N)[C@H](O)[C@H](C)O2)Oc2ccc(cc2Cl)[C@H]1O` [VANCOMYCIN], for which the “diameter of the inhibition zone (DIZ)” value (in the experiment with Staphylococcus aureus [2]; in [3]; in the experiment on Staphylococcus aureus [5]; in the experiment on Staphylococcus aureus [6]; in [7]; in the experiment with Staphylococcus aureus [8]) was 16 mm throughout. In experiment [16], this compound registered an MIC of 2 µg/mL (≈ 1.38 µM).
For `O=C1C=C(NCSc2ccccc2)C(=O)c2ccccc21`, the inhibition result (with Klebsiella pneumoniae [1]; in the experiment on Staphylococcus aureus [2]; in experiment [3]; in the experiment on Pseudomonas aeruginosa [4]; in the experiment on Staphylococcus aureus [5]; in the experiment on Staphylococcus aureus [6]) was “inactive” in each case. The inhibition entry (in experiment [7]; in the experiment with Staphylococcus aureus [8]) was “inactive” in each case.
